# Measurements: article PMC6270814, “Effects of Ursolic Acid Derivatives on Caco-2 Cells and Their Alleviating Role in Streptozocin-Induced Type 2 Diabetic Rats” (Molecules, 2014)
# Tests used:
# Caco-2 cells [1] = assay: MTT cytotoxicity assay on Caco-2 cells; type: cell-based, Human; settings: Homo sapiens, 24 h, mean ± SD, n = 4, read-out: Inhibition Rate %
# Protocol: Human intestinal Caco-2 cells (ATCC, Rockville, MD, USA) were incubated at 37 °C in a humidified atmosphere of 5% CO2 in air. The cells were cultured in Dulbecco’s […] medium (DMEM) with 10% heat-inactivated fetal bovine serum, 1% non-essential amino acids, 1% L-glutamine, 1% penicillin/streptomycin (Gibco Life Technologies, Grand Island, NY, USA). The cells were sub-cultured at confluence by 0.05% trypsin-0.5 mM EDTA treatment before they were applied in the experiment.
# A MTT test was conducted to determine the possible toxicity of UA and its derivatives to Caco-2 cells. Briefly, cells were seeded at a density of 1 × 10^4 cells/mL in a 96-well plate and incubated for 24 h. The next day, cells were incubated with vehicle (0.1% DMSO) and compounds at 100, 50, 25, 12.5 μmol/L for 24 h, and then 5 g/L MTT solution (20 μL) was added for 4 h. Absorbance at 570 nm was measured using a Multimodel Plate Reader (Infinite 200, Tecan, Mannedorf, Switzerland).
# Caco-2 cells [2] = assay: 2-NBDG glucose uptake by Caco-2 cell monolayers, Na+-independent (sodium free buffer); type: cell-based, Human; settings: 100 μM compound, Na+-independent (KCl/K2HPO4 buffer)
# Protocol: Caco-2 cells, which were derived from human colon adenocarcinoma, were selected for intestinal absorption studies because these cells express the morphological characteristics and most of the functional properties of differentiated small-intestinal enterocytes. Caco-2 cells were seeded on 24-well plates at the density of 2 × 10^5 cells/well. The medium was changed every 1–2 days, and the culture was carried out for 13 days. Then Caco-2 cells were placed in serum-free media for 24 h and then they were washed twice with Hanks’ balanced salt solution (HBSS, pH 7.5, 140 mM NaCl, 5 mM KCl, 1.2 mM Na2HPO4, 2 mM CaCl2, 1.2 mM MgSO4, 20 mM HEPES, 0.2% bovine serum albumin) before the uptake studies. When a sodium free buffer was required, NaCl and Na2HPO4 were replaced with equal amounts of KCl and K2HPO4, respectively. After washing, the cells were incubated for 15 min at room temperature in HBSS before the commencement of this experiment. The uptake studies were initiated by adding HBSS containing either control or test solution (100 μM) and […] (100 μM) for 30 min at 37 °C. Glucose uptake was stopped by adding twofold volume of ice-cold PBS and the wells were washed with ice-cold PBS three times. Fluorescent intensity was measured by a Multimodel Plate Reader (Tecan Infinity 200) with the 485 nmex and 535 nmemiss filter set before and after adding 2-NBDG. Then the cells were lysed in 200 μL lysis buffer (10 mM Tris-HCl pH = 7.4, 150 mM NaCl, 1% Triton-x-100, 1 mM EDTA, 0.1% SDS) and supplemented immediately before they were processed with 10 μg/mL PMSF. Cells were allowed to lyse on ice, and then vortexed and sonicated. The lysate was used for protein determination, protein concentrations were determined as described by BCA kit (Boster, Wuhan, China) with bovine serum albumin as standard.
# [3] = tested on: STZ-induced diabetic rats; assay: Serum biochemical parameters (insulin, total protein, albumin) in STZ-induced diabetic rats; type: in vivo, rat; settings: 4 weeks, compounds 100 mg/kg, glibenclamide 10 mg/kg
# Protocol: (§1) Diabetes was induced by a single intraperitoneal injection of streptozotocin (Sigma-Aldrich, St. Louis, MO, USA) at a dose of 65 mg/kg body weight. STZ was dissolved in 0.1 M cold citrate buffer, pH 4.5. Control group were injected with citrate buffer alone. After 7 days for the development of diabetes, plasma glucose levels were determined of each rat. Rats with fasting blood glucose (FBG) range of above 16.7 mmol/L were considered as DM rats and were used for further study.
# (§2) According to the body weight and plasma glucose levels the rats were divided randomly into seven groups with six rats each and treated as follows: • Group I: Normal rats treated with 0.5% CMC-Na (2 mL/200 g body weight). • Group II: Diabetic rats treated with 0.5% CMC-Na. • Group III: Diabetic rats treated with 10 mg/kg of glibenclamide. • Group IV: Diabetic rats treated with 100 mg/kg of compound 1 (UA). • Group V: Diabetic rats treated with 100 mg/kg of compound 10. • Group VI: Diabetic rats treated with 100 mg/kg of compound 11. • Group VII: Diabetic rats treated with 100 mg/kg of compound 12.
# (§3) The treatment was continued daily for 28 days. Blood glucose levels and body weight were measured every week to ascertain the status of diabetes. After 4 weeks of treatment, the animals were fasted for 12 h and sacrificed by cervical dislocation under mild anaesthetization, blood was collected into heparinized tubes and centrifuged at 2,000 rpm for 10 min. Livers and kidneys were removed, washed and homogenized in ice-cold normal saline. This homogenates were centrifuged at 3,000 rpm for 10 min at 4 °C, and the supernatants were collected for the estimate of antioxidant markers.
# (§4) Fasting blood glucose levels were estimated on days 0, 7, 14, 28 with the single touch glucometer (Life Scan, Johnson & Johnson Company, New Brunswick, NJ, USA). Serum insulin level was measured by use of a commercial immunoassay kit by enzyme linked immunosorbent assay (Uscn. Life Science Inc., Wuhan, China). Serum total protein, albumin, triglycerides (TG), total cholesterol (TC), high-density lipoprotein cholesterol (HDL-C), and low-density lipoprotein cholesterol (LDL-C) were measured with an automatic biochemical analyzer (Sinnowa D240, Nanjing, China).
# [4] = tested on: STZ-induced diabetic rats; assay: Body weight and daily food intake of STZ-induced diabetic rats; type: in vivo, rat
# Protocol: as §1, §2, §3
# [5] = tested on: STZ-induced diabetic rats; assay: Serum lipid profile (TG, TC, LDL-C, HDL-C) in STZ-induced diabetic rats; type: in vivo, rat; settings: 4 weeks, compounds 100 mg/kg, glibenclamide 10 mg/kg
# Protocol: as §1, §2, §3, §4
compound,measurement,setting,value
CCC(=O)O[C@H]1CC[C@@]2(C)C(CC[C@]3(C)C2CC=C2C4[C@@H](C)[C@H](C)CC[C@]4(C(=O)O)CC[C@]23C)C1(C)C (stereo partly drawn) [Compound 10],inhibition at 100 µM,Caco-2 cells [1],7.84 ± 4.15%
same,"glucose uptake, % of the control value (Na+-independent)",Caco-2 cells [2],70 % of the control value
same,serum albumin level vs diabetic control,[3],increased significantly
same,serum insulin level vs diabetic control,[3],increased significantly
same,serum total protein level vs diabetic control,[3],increased significantly
same,daily food intake vs untreated diabetic rats,"[4]; compounds 100 mg/kg, glibenclamide 10 mg/kg, oral",reduce daily food intake significantly
same,body weight vs diabetic control,"[4]; end of the treatment period, 100 mg/kg",significant increase
same,serum TC level vs diabetic control,[5],significantly decreased
same,serum TG level vs diabetic control,[5],significantly decreased
